Structures can show the parent of a compound that is named as a salt. Where two headings read alike, the source gives them in different places.
Experiments:
urokinase (uPA) = target: T1, urokinase (uPA) (Homo sapiens, UniProt P00749); assay: In vitro inhibition of urokinase (Ki according to Dixon, chromogenic substrate); format: biochemical
T1 construct: purchased Calbiochem-Novabiochem GmbH, Bad Soden, Germany
Description: (§1) In order to determine the inhibitory activity, 200 μl Tris buffer (0.05 mol/l containing the inhibitor, 0.154 mol/l NaCl, pH 8.0), 25 μl substrate (Pefachrome uPA, Pefachrome PL or Pefabloc TH in H2O; Pentapharm Ltd, Basle, Switzerland) and 50 μl urokinase (Calbiochem-Novabiochem GmbH, Bad Soden, Germany) or another appropriate protease e.g. plasmin, thrombin or FXa are incubated for 10 minutes at 30° C. After ca. 30 minutes and 30 cycles the absorption is determined at 405 nm by means of a microplate reader (Mediators PHL, Aureon Biosystems, Vienna, Austria). The Ki values were determined according to Dixon by linear regression using a computer program.

Plasmin = Plasmin (Homo sapiens, UniProt P00747); assay: In vitro inhibition of plasmin (Ki according to Dixon); format: biochemical
Description: as §1

Thrombin = Thrombin (Homo sapiens, UniProt P00734); assay: In vitro inhibition of thrombin (Ki according to Dixon); format: biochemical
Description: as §1

FXa = FXa (Homo sapiens, UniProt P00742); assay: In vitro inhibition of FXa (Ki according to Dixon); format: biochemical
Description: as §1

PK = PK (Homo sapiens, UniProt P03952); assay: In vitro inhibition of PK (Ki); format: biochemical; settings: summary table
Description: as §1

Caco-2 cell monolayers = assay: Caco-assay: transport across Caco-2 cell monolayers; format: in vitro ADME, human; settings: for % amount in the basolateral compartment: 10 μg/ml apical, four hours
Description: Transport of the compounds WX-508, WXC-316, WXC-318, WXC-324, WXC-340, WX-532, WX-538, WX-550 and WX-582 across Caco-2 cell monolayers was investigated. In this experiment the bioavailability of the said compounds after oral administration was assessed.
Caco-2-cells (American Type Culture Collection, Rockville, Md., USA) were cultured in Dulbecco's modified Eagle medium (DMEM) (Life Technologies, Gibco BRL, UK) containing 10% vol/vol heat-denatured foetal calf serum (FCS), 1% vol/vol non-essential amino acids, 160 U/ml benzylpenicillin and 100 U/ml streptomycin (Sigma Chemical, St. Louis, Mo., USA). The cells are kept at 37° C. in an atmosphere comprising 95% air and 5% CO2 at 90% relative air humidity. The cells are cultured in […] culture flasks, the medium being replaced every second day and the cells are trypsinized once per week.
For the transport investigations the Caco-2 cells are cultured on porous polycarbonate filter membranes having a pore size of 0.4 μm and a surface of 4.7 cm^2 in clusters of 6 wells (Costar Transwell, Badhoevedorp, Netherlands). The cells are inoculated on each filter at an initial density of 10^4 cells/cm^2. These cells are kept at 37° C. in one of the atmospheres described above. The medium is replaced every second day for a period of three weeks.
On the day of the transport experiment the culture medium was replaced by the same volume of Hank's balanced saline solution (HBSS) buffered with 30 mM HEPES at pH 7.2 (transport medium) and the cells are allowed to equilibrate for 1 hour. Afterwards the apical medium is replaced by 1.5 ml of a solution containing one of the compounds in HBSS/HEPES (10 μg/ml). Cell monolayers are incubated for four hours. Samples of the apical and basolateral compartments are removed at the end of the experiments and used to quantitatively determine the transport of the respective compounds.
The transepithelial electric resistance (TEER) is measured before and after equilibration using a Milicell ERS meter which was connected to a pair of electrodes in order to ensure the integrity of the monolayers formed on the filters. TEER is also measured at the end of the experiments to ensure that the cell monolayer remains coherent.
Samples are taken from the apical and the basolateral side and analysed in a beta counter after adding a scintillation cocktail. All experiments were carried out three times.

[1] = Oral bioavailability and plasma kinetics in mice (serum concentration); format: in vivo, Balb/c mice; settings: mouse; for concentration at 20 min / concentration at 40 min / concentration at 60 min: female, Balb/c, serum, po; for concentration at 20 min: sample at 20 minutes; for concentration at 40 min: sample at 40 minutes; for concentration at 60 min: sample at 60 minutes; for c in the serum 1st analysis / c in the serum 2nd analysis: 10 mg/kg i.v.
[2] = list of test substances of Example 17, read-out: Ki human uPA
[3] = summary table, read-out: Ki uPA
[4] = 30 mg/kg, 30 mg/kg oral, read-out: c in the serum 1st analysis
[5] = 30 mg/kg, 30 mg/kg oral, read-out: c in the serum 2nd analysis
[6] = 300 mg/kg, 300 mg/kg oral, read-out: c in the serum 1st analysis
[7] = 300 mg/kg, 300 mg/kg oral, read-out: c in the serum 2nd analysis

Chain of FXa (P00742 235-488 limits assumed): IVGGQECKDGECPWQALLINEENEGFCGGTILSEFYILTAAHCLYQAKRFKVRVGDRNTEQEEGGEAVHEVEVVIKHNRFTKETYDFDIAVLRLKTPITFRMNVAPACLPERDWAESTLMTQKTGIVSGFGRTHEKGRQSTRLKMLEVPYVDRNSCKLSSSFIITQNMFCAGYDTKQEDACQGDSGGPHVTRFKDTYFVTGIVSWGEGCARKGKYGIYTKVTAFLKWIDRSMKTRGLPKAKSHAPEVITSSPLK
Chain of FXa (P00742 41-179 partner limits assumed): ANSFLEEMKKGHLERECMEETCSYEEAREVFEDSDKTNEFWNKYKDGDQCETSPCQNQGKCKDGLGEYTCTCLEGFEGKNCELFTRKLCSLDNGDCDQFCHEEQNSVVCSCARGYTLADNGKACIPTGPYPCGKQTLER
Chain of Plasmin (P00747 581-810 limits assumed, species assumed): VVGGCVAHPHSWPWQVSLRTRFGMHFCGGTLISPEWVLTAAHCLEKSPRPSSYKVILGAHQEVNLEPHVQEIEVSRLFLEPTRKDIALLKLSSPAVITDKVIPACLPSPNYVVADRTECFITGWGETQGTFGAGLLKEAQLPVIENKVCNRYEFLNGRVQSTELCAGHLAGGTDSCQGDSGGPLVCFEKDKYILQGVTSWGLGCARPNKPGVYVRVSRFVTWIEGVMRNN
Chain of Plasmin (P00747 97-580 partner limits assumed, species assumed): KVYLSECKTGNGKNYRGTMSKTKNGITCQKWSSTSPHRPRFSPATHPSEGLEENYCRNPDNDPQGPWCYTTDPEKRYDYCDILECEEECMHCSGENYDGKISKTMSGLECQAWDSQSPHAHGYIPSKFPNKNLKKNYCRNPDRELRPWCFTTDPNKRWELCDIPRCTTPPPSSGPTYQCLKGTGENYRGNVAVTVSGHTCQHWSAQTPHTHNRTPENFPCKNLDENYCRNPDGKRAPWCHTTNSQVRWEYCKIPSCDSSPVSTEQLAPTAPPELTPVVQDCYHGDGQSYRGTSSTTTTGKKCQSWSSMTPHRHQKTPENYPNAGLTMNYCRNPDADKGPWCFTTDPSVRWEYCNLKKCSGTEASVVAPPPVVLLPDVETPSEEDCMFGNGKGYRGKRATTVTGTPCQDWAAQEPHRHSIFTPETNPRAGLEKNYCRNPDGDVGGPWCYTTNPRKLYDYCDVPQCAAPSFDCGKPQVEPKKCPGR
Chain of PK (P03952 20-638): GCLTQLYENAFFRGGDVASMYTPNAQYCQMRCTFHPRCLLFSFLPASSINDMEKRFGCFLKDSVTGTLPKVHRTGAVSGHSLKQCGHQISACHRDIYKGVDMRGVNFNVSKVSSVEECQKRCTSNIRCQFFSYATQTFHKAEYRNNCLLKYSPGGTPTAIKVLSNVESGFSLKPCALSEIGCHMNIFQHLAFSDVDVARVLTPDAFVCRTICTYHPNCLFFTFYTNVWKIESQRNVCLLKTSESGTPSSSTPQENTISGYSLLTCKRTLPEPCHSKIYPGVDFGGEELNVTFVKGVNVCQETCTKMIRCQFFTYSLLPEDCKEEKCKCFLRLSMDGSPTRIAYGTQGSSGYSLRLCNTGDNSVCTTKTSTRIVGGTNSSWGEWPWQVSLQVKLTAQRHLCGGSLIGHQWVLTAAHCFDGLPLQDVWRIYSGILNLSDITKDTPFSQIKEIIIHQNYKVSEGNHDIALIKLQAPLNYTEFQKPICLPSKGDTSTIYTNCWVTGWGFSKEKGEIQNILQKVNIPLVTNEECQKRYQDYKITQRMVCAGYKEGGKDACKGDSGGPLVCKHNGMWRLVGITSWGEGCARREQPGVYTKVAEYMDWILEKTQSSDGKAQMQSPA

Row | Ki (urokinase (uPA); [2]) | Ki (urokinase (uPA); read-out: Ki uPA) | Ki (urokinase (uPA); [3]) | Ki (FXa) | Ki (PK) | % amount in the basolateral compartment (Caco-2 cell monolayers; first value column) | % amount in the basolateral compartment (Caco-2 cell monolayers; second value column) | % amount in the basolateral compartment (Caco-2 cell monolayers; third value column) | Caco-2 assay % basolateral (Caco-2 cell monolayers; first series, first value) | Caco-2 assay % basolateral (Caco-2 cell monolayers; first series, second value) | Caco-2 assay % basolateral (Caco-2 cell monolayers; first series, third value) | Caco-2 assay % basolateral (Caco-2 cell monolayers; second series, first value) | Caco-2 assay % basolateral (Caco-2 cell monolayers; second series, second value) | Caco-2 assay % basolateral (Caco-2 cell monolayers; second series, third value) | concentration at 20 min [1, 4] | concentration at 60 min [1, 4] | concentration at 20 min [1, 6] | concentration at 40 min [1, 6] | concentration at 60 min [1, 6] | c in the serum 1st analysis ([1]; time of sample collection 10) | SMILES | other results
1 | 90 nM | 90 nM | 90 nM | 32400 nM | 875000 nM | 0.2% | 0.2% | 3.6% | 0.2% | 0.2% | 3.4% | 0.1% | 0.1% | 3.6% | 500 ng/mL | 400 ng/mL | 6000 ng/mL | 21800 ng/mL | 5300 ng/mL | 12.4 µg/mL | N=C(N)Nc1ccc(CNC(=O)CNC(=O)C(CO)NS(=O)(=O)Cc2cccc([N+](=O)[O-])c2)cc1 (stereo not drawn) [WX-C316, 3-Nitrobenzyl-sulfonyl-(D)-Ser-Gly-(4-guanidinobenzyl)amide hydrochloride] | Ki Plasmin (Plasmin): no inh. at 100 μM *); Ki Plasmin (Plasmin; summary table): no inh. at 100 μM *); Ki Thrombin (Thrombin): no inh. at 100 μM *); Ki Thrombin (Thrombin; summary table): no inh. at 100 μM *); concentration at 20 min [1, 5]: 600 ng/mL; concentration at 40 min [1, 4]: 5900 ng/mL; concentration at 40 min [1, 5]: 7100 ng/mL; concentration at 60 min [1, 5]: 500 ng/mL; concentration at 20 min [1, 7]: 7200 ng/mL; concentration at 40 min [1, 7]: 32100 ng/mL; concentration at 60 min [1, 7]: 5800 ng/mL; c in the serum 1st analysis ([1]; time of sample collection 0): 45.4 µg/mL; c in the serum 2nd analysis ([1]; time of sample collection 0): 67.5 µg/mL; c in the serum 2nd analysis ([1]; time of sample collection 10): 14.3 µg/mL; c in the serum 1st analysis ([1]; time of sample collection 30): 2.7 µg/mL; c in the serum 2nd analysis ([1]; time of sample collection 30): 2.6 µg/mL
2 | 41 nM | 41 nM | 41 nM | > 100000 nM | 109000 nM | 0.2% | 0.2% | 0.1% | 0.2% | 0.2% | 0.1% | 0.1% | 0.1% | 0% | 100 ng/mL | 200 ng/mL | 2500 ng/mL | 3500 ng/mL | 2300 ng/mL | 5.5 µg/mL | CN(CC(=O)NCc1ccc(NC(=N)N)cc1)C(=O)C(CO)NS(=O)(=O)Cc1ccccc1 (stereo not shown) [WX-538, benzylsulfonyl-(D)-Ser-N-Me-Gly-(4-guanidinobenzyl)amide] | Ki (Plasmin): 130000 nM; Ki (Thrombin): > 100000 nM; Ki (Thrombin; summary table): > 100000 nM; Ki (FXa; summary table): > 100000 nM; concentration at 40 min [1, 4]: 50 ng/mL; c in the serum 1st analysis ([1]; time of sample collection 0): 45.8 µg/mL; c in the serum 1st analysis ([1]; time of sample collection 30): 0.6 µg/mL
3 | 47 nM | 47 nM | 47 nM | 36000 nM | 176000 nM | 0.4% | 1.0% | 4.5% | 0.4% | 1.0% | 4.5% | 0.2% | 0.6% | 7.0% | 100 ng/mL | 200 ng/mL | 100000 ng/mL | 5400 ng/mL | 7500 ng/mL | 4.3 µg/mL | N=C(N)Nc1ccc(CNC(=O)CNC(=O)C(CO)NS(=O)(=O)Cc2cccc(Cl)c2)cc1 (stereo not drawn) [WX-C318, 3-Chlorobenzyl-sulfonyl-(D)-Ser-Gly-(4-guanidinobenzyl)amide hydrochloride] | Ki Plasmin (Plasmin): no inh. at 100 μM *); Ki Plasmin (Plasmin; summary table): no inh. at 100 μM *); Ki Thrombin (Thrombin): no inh. at 100 μM *); Ki Thrombin (Thrombin; summary table): no inh. at 100 μM *); concentration at 20 min [1, 5]: 200 ng/mL; concentration at 40 min [1, 5]: 50 ng/mL; concentration at 60 min [1, 5]: 200 ng/mL; concentration at 20 min [1, 7]: 82600 ng/mL; concentration at 40 min [1, 7]: 6200 ng/mL; concentration at 60 min [1, 7]: 7700 ng/mL; c in the serum 2nd analysis ([1]; time of sample collection 0): 48.4 µg/mL; c in the serum 2nd analysis ([1]; time of sample collection 10): 5.5 µg/mL; c in the serum 1st analysis ([1]; time of sample collection 30): 0.7 µg/mL; c in the serum 2nd analysis ([1]; time of sample collection 30): 1.4 µg/mL

Reference: US20040266766A1, “Selective urokinase inhibitors” (Wilex AG, priority 2001, published 2004)
